Results reported in article PMC9422132, “Membrane transporters control cerebrospinal fluid formation independently of conventional osmosis to modulate intracranial pressure” (Fluids and Barriers of the CNS, 2022).

Biological target: T1, NBCe2 (Rattus norvegicus, UniProt Q6RI88)
T1 construct: gene Slc4a5
T1 sequence (Q6RI88 1-1112): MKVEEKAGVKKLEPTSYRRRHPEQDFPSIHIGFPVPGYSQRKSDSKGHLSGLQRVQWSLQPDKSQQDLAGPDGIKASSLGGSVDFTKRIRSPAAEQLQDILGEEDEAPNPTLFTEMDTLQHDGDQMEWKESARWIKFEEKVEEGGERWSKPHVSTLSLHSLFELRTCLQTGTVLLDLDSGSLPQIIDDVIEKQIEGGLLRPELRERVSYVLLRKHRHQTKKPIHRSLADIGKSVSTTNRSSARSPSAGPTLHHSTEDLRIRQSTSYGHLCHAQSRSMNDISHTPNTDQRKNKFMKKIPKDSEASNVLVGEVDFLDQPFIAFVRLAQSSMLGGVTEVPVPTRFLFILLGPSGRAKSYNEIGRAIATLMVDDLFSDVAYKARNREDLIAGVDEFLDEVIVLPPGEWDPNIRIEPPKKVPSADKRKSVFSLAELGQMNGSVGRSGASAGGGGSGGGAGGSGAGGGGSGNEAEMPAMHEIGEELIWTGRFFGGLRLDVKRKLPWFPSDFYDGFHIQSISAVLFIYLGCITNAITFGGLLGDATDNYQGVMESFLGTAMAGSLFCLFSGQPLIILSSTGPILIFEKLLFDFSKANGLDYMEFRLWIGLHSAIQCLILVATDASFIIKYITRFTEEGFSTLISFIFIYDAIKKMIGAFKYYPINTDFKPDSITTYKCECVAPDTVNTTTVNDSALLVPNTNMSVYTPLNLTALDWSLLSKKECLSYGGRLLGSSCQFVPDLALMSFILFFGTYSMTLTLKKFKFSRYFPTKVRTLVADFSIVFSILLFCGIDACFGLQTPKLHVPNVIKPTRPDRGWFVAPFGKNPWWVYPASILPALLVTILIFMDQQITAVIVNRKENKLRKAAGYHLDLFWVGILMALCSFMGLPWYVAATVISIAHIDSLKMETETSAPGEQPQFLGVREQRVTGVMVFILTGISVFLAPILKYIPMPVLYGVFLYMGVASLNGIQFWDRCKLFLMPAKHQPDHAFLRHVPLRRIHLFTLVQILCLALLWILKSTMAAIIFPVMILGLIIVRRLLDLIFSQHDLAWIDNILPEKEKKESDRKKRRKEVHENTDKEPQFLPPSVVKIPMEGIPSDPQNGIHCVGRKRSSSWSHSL
Assay: two-electrode voltage clamp of rat NBCe2 expressed in Xenopus laevis oocytes
Type: cell-based

| SMILES | IC50 [µM] |
| --- | --- |
| O=S(=O)(O)c1cc(N=C=S)ccc1/C=C/c1ccc(N=C=S)cc1S(=O)(=O)O [DIDS] | 4.5 ± 1.8 |
| Cc1ccc(CN(Cc2ccc(-c3ccccc3S(=O)(=O)NC#N)cc2)C(=O)c2ccccc2Cl)cc1 [S0859] | 10.7 ± 0.9 |
